In test [1] the test system is T1, General amino-acid permease GAP1 (Saccharomyces cerevisiae), P19145 [A403C].
T1 sequence (whole entry): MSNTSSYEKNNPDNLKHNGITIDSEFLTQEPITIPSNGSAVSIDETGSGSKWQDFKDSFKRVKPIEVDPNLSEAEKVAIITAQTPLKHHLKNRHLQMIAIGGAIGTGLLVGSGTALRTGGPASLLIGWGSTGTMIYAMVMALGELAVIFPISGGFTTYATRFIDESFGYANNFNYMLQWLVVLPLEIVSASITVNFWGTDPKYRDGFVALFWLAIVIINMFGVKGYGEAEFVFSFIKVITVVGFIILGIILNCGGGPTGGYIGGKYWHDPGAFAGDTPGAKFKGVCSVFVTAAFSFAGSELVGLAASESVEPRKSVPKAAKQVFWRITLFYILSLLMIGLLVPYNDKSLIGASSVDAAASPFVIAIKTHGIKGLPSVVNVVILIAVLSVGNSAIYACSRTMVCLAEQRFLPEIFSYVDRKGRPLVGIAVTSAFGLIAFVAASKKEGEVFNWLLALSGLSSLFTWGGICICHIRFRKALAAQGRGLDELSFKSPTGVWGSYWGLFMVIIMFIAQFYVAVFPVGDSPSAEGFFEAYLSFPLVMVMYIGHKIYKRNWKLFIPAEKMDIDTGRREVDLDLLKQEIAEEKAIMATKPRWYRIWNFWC
The experiment in a line: Induction of yeast Gap1 A403C mutant-mediated trehalose activation at 10 mM.

In test [2] the test system is T2, General amino-acid permease GAP1 (Saccharomyces cerevisiae), P19145 [A385C].
T2 sequence (whole entry): T1 sequence (whole entry) with A385C, C403A
The experiment in a line: Induction of yeast Gap1 A385C mutant-mediated trehalose activation at 10 mM.

For test [3], the system named is Saccharomyces cerevisiae. The experiment in a line: Activation of yeast Gap1 L404 mutant-mediated amino acid uptake at 10 mM.
Test [4] concerns T3, General amino-acid permease GAP1 (Saccharomyces cerevisiae), P19145 [L383C].
T3 sequence (whole entry): T1 sequence (whole entry) with L383C, C403A
The experiment in a line: Induction of yeast Gap1 L383C mutant-mediated amino acid uptake at 2 mM in presence of 10 mM MTSEA treated before compound addition.

Test [5] deals with T4, General amino-acid permease GAP1 (Saccharomyces cerevisiae), P19145 [V381C].
T4 sequence (whole entry): T1 sequence (whole entry) with V381C, C403A
The experiment in a line: Induction of yeast Gap1 V381C mutant-mediated amino acid uptake at 2 mM in presence of 10 mM MTSEA treated before compound addition.

Changes are numbered by the printed parent chain. Activity calls are given as the source filed them. No cut-off for these calls is given here.

Drawing on ChEMBL document CHEMBL1221220, “Transport and signaling via the amino acid binding site of the yeast Gap1 amino acid transceptor” (Nat Chem Biol, 2009), this text covers Activity for one molecule.

`NC(=O)NCCC[C@H](N)C(=O)O`: the result in test [1], in test [2] and in test [3] was inactive. Further, the outcome in test [4] and in test [5] was Active.
